Reference: US20110060057A1, “Inhibition of the Survival of Skin Cancer by Cyclohexenone Compounds from Antrodia Camphorata” (GOLDEN BIOTECHNOLOGY CORPORATION, priority 2009, published 2011)

Tested on: skin cancer cell line A431
Assay: In vitro survival assay (MTT) for anti-skin cancer effects
Assay type: cell-based
Conditions: A-431, A431 human epidermoid carcinoma cell line, 48 hours treatment, read-out: IC50 (half inhibition concentration), survival of skin cancer cells
Protocol: Inhibiting effects of skin cancer cells by cyclohexenone compounds of Antrodia camphorata from example 1 were assessed according to the anticancer-drug screening model of National Cancer Institute (NCI). The compound 4-hydroxy-2,3-dimethoxy-6-methyl-5 -(3,7,11-trimethyl-dodeca-2,6,10-trienyl)-cyclohex-2-enone from example 1 was added into the culture media of skin cancer cell line A431 to determine the survival rates. Survival of cell was analyzed using MTT assay. A431 cell line was a human epidermoid carcinoma cell line.
MTT assay is commonly used to analyze cell proliferation, survival rate of viable cells and cytotoxicity. MTT (3[4,5-dimethylthiazol-2-yl]-2,5-diphenyltetrazolium bromide) is a yellow dye which can be converted to water-insoluble purple formazan on the reductive cleavage of its tetrazolium ring by the succinate tetrazolium reductase in mitochondria of cells. The amount of formazan produced is used to detect the number of viable cells and calculate the survival rates. […]
Afterward, 2.5 mg/ml of MTT solution was added to each well and incubated in the dark for 4 hours, followed by the addition of 100 μl of lysis buffer to stop the reaction. The absorbances were measured at 570 nm with an ELISA Reader to determine the survival rates.

COC1=C(OC)C(O)C(C/C=C(\C)CC/C=C(\C)CCC=C(C)C)C(C)C1=O (stereo not shown) [formula 2, 4-hydroxy-2,3-dimethoxy-6-methyl-5-(3,7,11-trimethyl-dodeca-2,6,10-trienyl)-cyclohex-2-enone] gave an IC50 of 0.18 µg/mL.
